Test results reported in patent US20210113715A1, “TARGETED NANOPARTICLES FOR DIAGNOSING, DETECTING AND TREATING CANCER” (CEDARS-SINAI MEDICAL CENTER, priority 2018, published 2021).
“Also recorded” adds a separate entry of the source.

Legend:
[1] = test system: OATP transporter (U87 cells); experiment: Inhibition of HMC-FH uptake by pre-incubation with inhibitors; format: cell-based; conditions: fluorescence microscopy and flow cytometry
From the text: Next, we tested the ability of HMC-FH to target and internalize into various GBM cancer cell lines.

TMZ-resistant U87R cells = experiment: Transwell cell migration, U87R; format: cell-based
Protocol: After incubation, nonmigratory cells and media were washed from transwells, and those cells that migrated to the bottom of the filters were, fixed and stained and imaged using a fluorescence Microscope (Keyence BZ-X7 00). Representative images (5 fields) were taken of treatment (2 uM of each-BFA, HMC-FH and HMC-FH (BFA, DMSO) for quantification.

[2] = test system: intracranial U87 GBM tumors; experiment: Survival studies (Kaplan-Meier) of mice with intracranial U87 tumors; format: in vivo; conditions: treated 14 days after tumor implantation, 3 umol drug/kg i.v. twice a week for three weeks, n=5
Protocol: A dose of 3 umol drug/kg, 22 mM Fe (FH) was administered i.v via tail vein injection twice a week for […].
(§1) A dose of 3 umol drug/kg, 22 mM Fe (FH) was administered i.v. via tail vein injection twice a week for three weeks.
as §1
HMC-FH(PXL) and HMC-FH(BFA) increase the survival of mice with GBM tumors. In these experiments, we injected mice (n=5) with intracranial U87 GBM tumors with HMC-FH encapsulated with either paclitaxel (PTX) or docetaxel (DXT). As control, we injected either PBS or the corresponding drug along at equal concentrations. In initial studies, treatment started “late”, 14 days after tumor implantation. […] In additional studies, treatment was started earlier, 5 days after injection, to find out if an early treatment would improve survival. Impressive results were obtained by injecting HMC-FH(PXL), 5 days after tumor implantation.
In initial animal studies using BFA and HMC-FH(BFA), we injected mice (n=5) with intracranial U87 GBM tumors with either BFA (dissolved in DMSO) or HMC-FH(BFA) in saline. In these studies, treatment started “late”, 14 days after tumor implantation. […] The ability of BFA to cross the BBB has not been studied or reported, to our knowledge. However, due to its poor solubility, it is advantageous to encapsulate BFA in HMC-FH.

[3] = test system: PC3 prostate cancer cells; experiment: Transwell cell migration, PC3; format: cell-based; conditions: PC3, 24 h at 37° C.
Protocol: After incubation, nonmigratory cells and media were washed from transwells, and those cells that migrated to the bottom of the filters were, fixed and stained and imaged using a fluorescence Microscope. […] Quantification of the average number of cells per image that have migrated (FIG. 8C).

[4] = test system: LNCaP prostate cancer cells; experiment: Transwell cell migration, LNCaP; format: cell-based; conditions: 24 h at 37° C.
[5] = test system: intracranial U87MG tumors; conditions: mouse, in vivo
From the text: Mouse brains were extracted from the mouse skull, and tumors visualized and resected from the healthy brain while recording using SIRIS.

[6] = test system: human intracranial U87MG tumors; experiment: HMC-FH(PTX) treatment of nude mice with intracranial U87MG tumors; format: in vivo; conditions: six treatments, 1 mg HMC, 3 mg PTX and 4 mgFe/kg; treatment period 40 days after tumor inoculation
Protocol: Brain MRI images of treated mice (FIG. 46A). […] Corresponding mice body weight measurements (FIG. 46D).
The HMC-FH(PTX) was next used to treat nude mice with human intracranial U87MG tumors. […] It is not until after the treatment period that tumors start developing in the HMC-FH(PTX) treated mice (FIG. 46B).

Structure (SMILES): O=CC[C@@H](O)[C@H](O)[C@H](O)CO [2-deoxyglucose]
- effect of pre-incubation on HMC-FH uptake [1]: do not block the internalization

Structure (SMILES): COC(=O)N[C@H](C(=O)N[C@@H](Cc1ccccc1)[C@@H](O)CN(Cc1ccc(-c2ccccn2)cc1)NC(=O)[C@@H](NC(=O)OC)C(C)(C)C)C(C)(C)C [Atazanir]
- effect of pre-incubation on HMC-FH uptake [1]: uptake and cell associated fluorescence was reduced; also recorded: inhibits HMC-FH internalization

Structure (SMILES): C[C@H]1CCC/C=C/[C@@H]2C[C@H](O)C[C@H]2[C@H](O)/C=C/C(=O)O1 [BFA, Brefeldin A]
- cell migration (TMZ-resistant U87R cells; U87R, 2 uM, 24 h): decreased migration
- cell migration (TMZ-resistant U87R cells; printed as U87 cells): decrease cell migration
- survival, BFA formulations [2]: significantly longer than in the control mice; also recorded: enhanced mice survival
- cell migration [3]: decreased migration

Structure (SMILES): CC(=O)O[C@@]12CO[C@@H]1C[C@H](O)[C@@]1(C)C(=O)[C@H](O)C3=C(C)[C@@H](OC(=O)[C@H](O)[C@@H](NC(=O)OC(C)(C)C)c4ccccc4)C[C@@](O)([C@@H](OC(=O)c4ccccc4)[C@H]21)C3(C)C [DXT, docetaxel]
- cell migration [3]: decreased migration
- cell migration [4]: decreased migration

Structure (SMILES): CC1(C)C(/C=C/C=C/C=C/C=C2\N(CCCCS(=O)(=O)[O-])c3ccc4ccccc4c3C2(C)C)=[N+](CCCCS(=O)(=O)[O-])c2ccc3ccccc3c21.[Na+] [ICG]
- fluorescent labeling / localization to tumor [5]: does not show tumor localization

Structure (SMILES): CC(=O)O[C@H]1C(=O)[C@@]2(C)[C@H]([C@H](OC(=O)c3ccccc3)[C@]3(O)C[C@H](OC(=O)[C@H](O)[C@@H](NC(=O)c4ccccc4)c4ccccc4)C(C)=C1C3(C)C)[C@]1(OC(C)=O)CO[C@@H]1C[C@@H]2O [PTX, paclitaxel]
- tumor growth / tumor detection by MRI or histopathology [6]: developed visible tumor
